Results as given in publication PMC3057712 (Molecular Biology of the Cell, 2011).

Target: T1, Sfh1 (Saccharomyces cerevisiae, UniProt P33324)
T1 sequence (P33324 1-310): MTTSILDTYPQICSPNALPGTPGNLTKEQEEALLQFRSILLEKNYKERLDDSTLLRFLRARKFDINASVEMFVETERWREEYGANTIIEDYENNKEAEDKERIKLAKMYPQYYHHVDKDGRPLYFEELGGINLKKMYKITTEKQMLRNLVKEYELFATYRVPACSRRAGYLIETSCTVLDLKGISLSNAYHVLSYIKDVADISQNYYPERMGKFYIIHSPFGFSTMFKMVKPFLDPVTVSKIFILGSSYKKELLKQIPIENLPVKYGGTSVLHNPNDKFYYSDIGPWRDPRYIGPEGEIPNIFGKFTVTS
Experiment: CW X-band EPR, loading from multilamellar liposomes
Type: binding
Details: 130 μM protein, twofold molar excess of lipid, pH 6.8, 23°C; labelled compound

1-acyl-2-(n-(4,4-dimethyloxazolidine-N-oxyl)stearoyl)-sn-glycero-3-phosphocholines [16-doxyl-PtdCho]
% of total protein loaded: ~ 20%
